# Measured values reported in patent US20230033195A1, “METHODS AND COMPOSITIONS FOR IMPROVING COGNITIVE FUNCTION” (THE JOHNS HOPKINS UNIVERSITY, priority 2011, published 2023).
# Where two headings read alike, the source gives them in different places.
# How the values were obtained:
# [1] = cited from earlier work
# [2] = tested on: Age-Impaired (AI) Long-Evans rats; test: Morris Water Maze (MWM) retention trial, spatial memory retention; type: in vivo, rat
# Procedure: FIG. 2 depicts the effects of administering levetiracetam on the spatial memory retention of six aged-impaired rats (AI) in a Morris Water Maze (MWM) test. Three treatment conditions were employed: vehicle control, levetiracetam (5 mg/kg/day) and levetiracetam (10 mg/kg/day). The AI rats were trained for two consecutive days, with a one-time treatment prior to the training trials per day. 24 hours later, the AI rats were tested. The time the AI rats, 24 hours after treatment with the different conditions and two days of training, spent swimming in the target quadrant or the target annulus in a memory retention trial is used as a measure of spatial memory retention. The target quadrant refers to the quadrant of the maze (which is a circular pool) where the escape platform is placed during the training trials. The target annulus refers to the exact location of the escape platform during the training trials.
# The MWM apparatus consists of a large, circular pool (diameter 1.83 m; height, 0.58 m) filled with water (27° C.) that is made opaque through the addition of non-toxic pigment or some other substance. In the typical "hidden platform" version of the test, rats are trained to find a camouflaged white escape platform (height, 34.5 cm) that is positioned in the center of one quadrant of the maze about 1.0 cm below the water surface. This platform can be retracted to the bottom of the tank or raised to its normal position from outside the maze during behavioral testing. The location of the platform remains constant from trial to trial. Because there are no local cues that mark the position of the platform, the rat's ability to locate it efficiently from any starting position at the perimeter of the pool depends on using information surrounding the maze. The maze is surrounded by black curtains to which white patterns are affixed to provide a configuration of spatial cues. A second platform (height 37.5 cm), with its surface painted black is elevated 2 cm above the water surface during cue training to control for factors unrelated to cognition. The behavior of a rat in the pool is recorded by a camera that is suspended 2.5 m above the center of the pool. The camera is connected to a video tracking system (HVS Image Advanced Tracker VP200) and a PC computer running HVS software developed by Richard Baker of HVS Image, Hampton, UK.
# The MWM protocol is optimized for sensitivity to the effects of aging on cognition and for measures of reliable individual differences within the aged population of out-bred Long-Evans rats (Gallagher et al. Behav. Neurosci. 107:618-626, (1993)). […] At the completion of the protocol using the hidden platform, rats are assessed for cue learning using the visible platform. […]
structure (smiles),measurement,setting,value
"CC[C@@H](C(N)=O)N1CCCC1=O [levetiracetam, (2S)-2-(2-oxopyrrolidin-1-yl) butanamide]",absorption,[1]; after oral administration,rapidly and almost completely absorbed
same,plasma half-life,[1]; expected in elderly due to decreased renal function,9 to 10 h
same,time of peak plasma concentrations,[1]; following oral administration,about 1 hour
same,plasma half-life,[1]; in vivo,approximately 7 ± 1 hour
same,time to steady state,[1]; multiple twice-daily dosing,2 days
same,effect of food on bioavailability,[1]; oral administration,not affected by food
same,performance (time in target quadrant) compared to vehicle,"[2]; 5 mg/kg/day i.p., retention trial 24 h after training",did not significantly improve
same,time spent in the target annulus,"[2]; 10 mg/kg/day i.p., retention trial",effectivness of the 10 mg/kg/day levetiracetam treatment was also seen
same,memory as compared to vehicle-treated controls (time in target quadrant),"[2]; 10 mg/kg/day i.p., retention trial 24 h after training",significantly improved memory
same,"time spent in the target quadrant, percentage of total swimming time","[2]; 10 mg/kg/day i.p., retention trial 24 h after two training days",approximately 35%
